Key:
porcine kidney trehalase = test: Glycosidase inhibition, laboratory 1: trehalase; assay type: biochemical; details: methanol
Source text: (§1) The enzymes α-glucosidase (from yeast), β-glucosidases (from almond and bovine liver), α-galactosidase (from coffee beans), β-galactosidase (from bovine liver), α-mannosidase (from Jack bean), β-mannosidase (from snail), α-L-rhamnosidase (from Penicillium decumbens), α-L-fucosidase (from bovine kidney), trehalase (from porcine kidney), β-glucuronidases (from E. coli and bovine liver), amyloglucosidase (from A. niger), para-nitrophenyl glycosides, and various disaccharides were purchased from Sigma-Aldrich Co (St Louis, MO, USA).
(§2) Brush border membranes were prepared from the rat small intestine according to the method of Kessler et al. and were assayed at pH 6.8 for rat intestinal maltase using maltose. For rat intestinal maltase, porcine kidney trehalase, and A. niger amyloglucosidase activities, the reaction mixture contained 25 mM maltose and the appropriate amount of enzyme, and the incubations were performed for 10–30 min at 37 °C. The reaction was stopped by heating at 100 °C for 3 min. After centrifugation (600× g; 10 min), the resulting reaction mixture was added to the Glucose CII-test Wako (Wako Pure Chemical Ind., Osaka, Japan). The absorbance at 505 nm was measured to determine the amount of the released D-glucose. Other glycosidase activities were determined using an appropriate para-nitrophenyl glycoside as substrate at the optimum pH of each enzyme. The reaction mixture contained 2 mM of the substrate and the appropriate amount of enzyme. The reaction was stopped by addition of 400 mM Na2CO3. The released para-nitrophenol was measured spectrometrically at 400 nm. All reactions run in methanol.

[1] = system: bovine liver β-galactosidase; test: Glycosidase inhibition, laboratory 1: bovine liver β-galactosidase; assay type: biochemical; details: methanol
Source text: as §1, §2

yeast α-glucosidase [2] = molecular target: T1, yeast α-glucosidase (Saccharomyces cerevisiae, UniProt P53341); test: Glycosidase inhibition, laboratory 2: yeast α-glucosidase; assay type: biochemical; details: for inhibition at 400 µM: read-out: % inhibition at ~400 μM, water; for % inhibition at ~400 μM: water
T1 construct: purchased Sigma
T1 sequence (P53341 whole entry): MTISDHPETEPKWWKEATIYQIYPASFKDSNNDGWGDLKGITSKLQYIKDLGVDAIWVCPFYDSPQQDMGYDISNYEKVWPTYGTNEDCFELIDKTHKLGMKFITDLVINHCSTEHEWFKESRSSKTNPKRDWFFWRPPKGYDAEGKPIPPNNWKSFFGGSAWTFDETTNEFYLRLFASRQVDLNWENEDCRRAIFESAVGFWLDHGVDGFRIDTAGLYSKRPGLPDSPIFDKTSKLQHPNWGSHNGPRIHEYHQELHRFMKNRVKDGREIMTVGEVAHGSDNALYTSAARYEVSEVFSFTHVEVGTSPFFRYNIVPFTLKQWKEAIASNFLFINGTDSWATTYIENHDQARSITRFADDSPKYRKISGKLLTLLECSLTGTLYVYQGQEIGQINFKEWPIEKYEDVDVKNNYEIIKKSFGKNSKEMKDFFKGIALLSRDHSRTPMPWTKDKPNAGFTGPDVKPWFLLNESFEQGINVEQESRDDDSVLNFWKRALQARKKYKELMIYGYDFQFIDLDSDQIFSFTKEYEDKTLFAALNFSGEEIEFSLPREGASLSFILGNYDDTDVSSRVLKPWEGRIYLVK
Experimental: (§3) All enzymes and para-nitrophenyl substrates were purchased from Sigma. Enzymes were assayed at 27 °C in 0.1 M citric acid/0.2 M disodium hydrogen phosphate buffers at the optimum pH for the enzyme. The incubation mixture consisted of 10 μL enzyme solution, 10 μL of 1 mg/mL aqueous solution of extract and 50 μL of the appropriate 5 mM para-nitrophenyl substrate made up in buffer at the optimum pH for the enzyme. The reactions were stopped by addition of 70 μL 0.4 M glycine (pH 10.4) during the exponential phase of the reaction, which had been determined at the beginning using uninhibited assays in which water replaced inhibitor. Final absorbances were read at 405 nm using a Versamax microplate reader (Molecular Devices). Assays were carried out in triplicate, and the values given are means of the three replicates per assay. All reactions run in water.

[3] = system: bovine kidney N-acetyl-β-glucosaminidase; test: Glycosidase inhibition, laboratory 2: N-acetyl-β-glucosaminidase; assay type: biochemical; details: water
Experimental: as §3

[4] = system: bovine liver β-glucuronidase; test: Glycosidase inhibition, laboratory 2: bovine liver β-glucuronidase; assay type: biochemical; details: water
Experimental: as §3

yeast α-glucosidase [5] = molecular target: T1, yeast α-glucosidase; test: Glycosidase inhibition, laboratory 1: yeast α-glucosidase; assay type: biochemical; details: methanol
Source text: as §1, §2

[6] = molecular target: T2, bovine liver β-glucosidase (Bos taurus, UniProt F1MNT6); test: Glycosidase inhibition, laboratory 1: bovine liver β-glucosidase; assay type: biochemical; details: methanol
T2 sequence (F1MNT6 1-469): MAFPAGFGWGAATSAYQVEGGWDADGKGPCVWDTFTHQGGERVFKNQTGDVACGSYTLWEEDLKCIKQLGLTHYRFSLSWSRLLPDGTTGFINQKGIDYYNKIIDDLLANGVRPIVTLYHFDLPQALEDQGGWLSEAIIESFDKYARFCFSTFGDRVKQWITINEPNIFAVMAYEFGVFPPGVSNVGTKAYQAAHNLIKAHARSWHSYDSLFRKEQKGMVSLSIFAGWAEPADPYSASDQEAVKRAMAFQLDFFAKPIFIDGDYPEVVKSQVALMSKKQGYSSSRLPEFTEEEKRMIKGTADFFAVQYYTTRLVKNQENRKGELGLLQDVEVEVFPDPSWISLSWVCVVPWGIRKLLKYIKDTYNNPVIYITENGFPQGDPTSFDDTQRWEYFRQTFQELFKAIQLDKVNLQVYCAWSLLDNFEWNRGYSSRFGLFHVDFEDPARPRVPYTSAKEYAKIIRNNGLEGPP
Source text: as §1, §2

MIA-Pa-Ca2 = test: MTT cell growth inhibition: MIA-Pa-Ca2; assay type: cell-based; details: Homo sapiens, MIA PaCa-2, read-out: GI50 = Concentration (µM) that inhibits cell growth by 50%; MIA-Pa-Ca2 pancreatic carcinoma; dose response
Du145 = test: MTT cell growth inhibition: Du145; assay type: cell-based; details: Homo sapiens, DU-145, read-out: GI50 = Concentration (µM) that inhibits cell growth by 50%; Du145 prostate carcinoma; dose response
HT29 = test: MTT cell growth inhibition: HT29; assay type: cell-based; details: Homo sapiens, HT-29, read-out: GI50 = Concentration (µM) that inhibits cell growth by 50%; HT29 colon carcinoma; dose response
SJ-G2 = test: MTT cell growth inhibition: SJ-G2; assay type: cell-based; details: read-out: GI50 = Concentration (µM) that inhibits cell growth by 50%; SJ-G2 glioblastoma; dose response
MCF10A = test: MTT cell growth inhibition: MCF10A normal breast; assay type: cell-based; details: Homo sapiens, MCF-10A, read-out: GI50 = Concentration (µM) that inhibits cell growth by 50%
[7] = system: panel of 10 cancer cell lines and a normal cell line (MCF10A); test: Cancer screening: whole cell line panel; assay type: cell-based; details: for GI50: Homo sapiens, read-out: GI50 values across all cancer cell lines and the normal cell line
BE2-C = test: MTT cell growth inhibition: BE2-C; assay type: cell-based; details: Homo sapiens, BE(2)-C, read-out: GI50 = Concentration (µM) that inhibits cell growth by 50%; BE2-C neuroblastoma; dose response
panel of 15 glycosidases = test: Glycosidase inhibition, laboratory 1: whole panel; assay type: biochemical; details: laboratory 1, methanol; range or words over enzymes
Source text: as §1
as §2, with “After centrifugation (600× g; 10 min), the resulting reaction mixture was added to the Glucose CII-test Wako (Wako Pure Chemical Ind., Osaka, Japan).” left out, “The reaction mixture contained 2 mM of the substrate and the appropriate amount of enzyme. The reaction was stopped by addition of 400 mM Na2CO3.” left out, “All reactions run in methanol.” left out

Compound | inhibition % at 100 μM (porcine kidney trehalase) | inhibition at 400 µM (yeast α-glucosidase [2]) [%] | GI50 (MIA-Pa-Ca2) [µM] | GI50 (Du145) [µM] | GI50 (HT29) [µM] | GI50 (SJ-G2) [µM] | GI50 (MCF10A) [µM] | GI50 [7] [µM] | % inhibition at ~400 μM [3] [%] | GI50 (BE2-C) [µM] | % inhibition at ~400 μM [4] [%] | IC50 [1] [µM] | inhibition at 100 µM (yeast α-glucosidase [5]; 100 μM) [%] | other results
N[C@@H](Cc1ccc(B(O)O)cc1)C(=O)O [BPA, 4-borono-L-phenylalanine, reference compound] | ^cNI ^d (0%) | 2.9 | – | – | – | – | – | – | – | – | – | – | – | inhibition % at 100 μM [1]: ^cNI ^d (10.9%); % inhibition at ~400 μM ([3]; 400 µM): 6.7%; % inhibition at ~400 μM ([4]; 400 µM): −0.7%
N[C@@H](Cc1ccc(B(O)O)cc1)C(=O)O [^10B-BPA, reference compound] | ^cNI ^d (0%) | – | – | – | – | – | – | – | – | – | – | – | – | inhibition % at 100 μM [1]: ^cNI ^d (0%); % inhibition at ~400 μM (yeast α-glucosidase [2]): 3.4%; % inhibition at ~400 μM ([3]; 400 µM): 6.3%; inhibition % at 100 μM (yeast α-glucosidase [5]; 100 μM): ^cNI ^d (0%); inhibition % at 100 μM ([6]; 100 μM): ^cNI ^d (14.2%); % inhibition at ~400 μM ([4]; 400 µM): −1%
CC1(C)OB(c2cccc(CN3C(=O)c4c(Cl)c(Cl)c(Cl)c(Cl)c4C3=O)c2)OC1(C)C [meta 3, 4,5,6,7-Tetrachloro-2-(3-(4,4,5,5-tetramethyl-1,3,2-dioxaborolan-2-yl)benzyl)isoindoline-1,3-dione] | ^aNI ^b (0%) | 32.2 | 38 ± 2.9 | 30 ± 0.41 | 26 ± 2.6 | 35 ± 1.7 | 18 ± 1 | 18 to 38 | 17.1 | 29 ± 0.58 | 5.8 | – | – | inhibition % at 10 μM [1]: ^cNI ^d (12.4%); inhibition at 10 µM (yeast α-glucosidase [5]): 0%; inhibition at 10 µM [6]: 18.8%
CC1(C)OB(c2cccc(NC(=O)c3cc(Cl)c(Cl)c(Cl)c3Cl)c2)OC1(C)C [meta 5, 2,3,4,5-tetrachloro-N-(3-(4,4,5,5-tetramethyl-1,3,2-dioxaborolan-2-yl)phenyl)benzamide] | ^aNI ^b (0%) | 82.8 | – | – | – | – | – | – | 30.6 | – | −5.7 | 213 | 12.8 | –
CC1(C)OB(c2ccccc2NC(=O)c2cc(Cl)c(Cl)c(Cl)c2Cl)OC1(C)C [ortho 5, 2,3,4,5-Tetrachloro-N-(2-(4,4,5,5-tetramethyl-1,3,2-dioxaborolan-2-yl)phenyl)benzamide] | – | 17.3 | 14 ± 0.25 | 16 ± 1.9 | 14 ± 1.7 | 16 ± 0.91 | 27 ± 2.8 | 11 to 27 | 28.8 | 16 ± 0.58 | −3.5 | – | – | inhibition % at 10 μM (porcine kidney trehalase; 10 μM): ^cNI ^d (1.2%); inhibition % at 10 μM [1]: ^cNI ^d (0%); percent inhibition across the glycosidase panel (panel of 15 glycosidases): no significant inhibition; inhibition at 10 µM (yeast α-glucosidase [5]): 0%; inhibition at 10 µM [6]: 21.2%
CC1(C)OB(c2ccccc2CNC(=O)c2cc(Cl)c(Cl)c(Cl)c2Cl)OC1(C)C [ortho 8, 2,3,4,5-tetrachloro-N-(2-(4,4,5,5-tetramethyl-1,3,2-dioxaborolan-2-yl)benzyl)benzamide] | ^aNI ^b (16.8%) | 68.9 | – | – | – | – | – | – | 28.3 | – | −6.3 | 278 | 0 | Percent cell growth inhibition across the cell line panel ([7]; 25 μM, range or words over cell lines): almost complete abrogation of cell growth inhibition
CC1(C)OB(c2ccc(CN3C(=O)c4c(Cl)c(Cl)c(Cl)c(Cl)c4C3=O)cc2)OC1(C)C [para 3, 4,5,6,7-Tetrachloro-2-(4-(4,4,5,5-tetramethyl-1,3,2-dioxaborolan-2-yl)benzyl)isoindoline-1,3-dione] | ^aNI ^b (0%) | 29.3 | 9.2 ± 1.9 | 5.5 ± 0.23 | 5.3 ± 1.3 | 6.6 ± 2.4 | 12 ± 0.58 | 3 to 18 | 8.3 | 8.1 ± 1.7 | 2.1 | – | 0 | inhibition at 100 µM ([6]; 100 μM): 4%
CC1(C)OB(c2ccc(NC(=O)c3cc(Cl)c(Cl)c(Cl)c3Cl)cc2)OC1(C)C [para 5, 2,3,4,5-tetrachloro-N-(4-(4,4,5,5-tetramethyl-1,3,2-dioxaborolan-2-yl)phenyl)benzamide] | ^aNI ^b (0%) | 38.4 | – | – | – | – | – | – | 20.6 | – | −2.2 | 333 | 0 | –
Borocaptate sodium [BSH, reference compound] | – | – | – | – | – | – | – | – | 37.1 | – | 31.6 | – | – | inhibition % at 1000 μM (porcine kidney trehalase; 1000 μM): ^aNI ^b (4.2%); inhibition % at 1000 μM ([1]; 1000 μM): ^aNI ^b (0%); % inhibition at ~400 μM (yeast α-glucosidase [2]): 59%; inhibition % at 1000 μM (yeast α-glucosidase [5]; 1000 μM): ^aNI ^b(6.9%); inhibition % at 1000 μM ([6]; 1000 μM): ^aNI ^b (15%)

From paper PMC9182199, “Borylated 2,3,4,5-Tetrachlorophthalimide and Their 2,3,4,5-Tetrachlorobenzamide Analogues: Synthesis, Their Glycosidase Inhibition and Anticancer Properties in View to Boron Neutron Capture Therapy” (Molecules, 2022)
